Source: paper PMC12608320, “Insecticidal Potential of Aniba canelilla (H.B.K.) Mez Essential Oil Against Aedes aegypti: Larvicidal and Adulticidal Activities, Mechanism of Action, and Formulation Development” (Plants, 2025)
Values after ≈ are worked out from the molar mass of the structure shown. Values joined by “and” are separate entries in the source; they are usually repeats but may differ in a detail not shown here. Equal values may be shown once.

Assays:
Aedes aegypti larvae = assay: Larvicidal activity against Aedes aegypti third instar larvae; conditions: for LC50 ± SEM (LCL-UCL): L3 larvae
Method: Eggs of the Rockefeller strain of Aedes aegypti were hatched in filtered water, and larvae were reared under controlled conditions (28 ± 1 °C; 12 h photoperiod) until reaching the third instar (L3). […] Each test condition, including controls, was run in quadruplicate. […] Formulations (PEOANIB, PNFTANE, PNFTENE) were applied with the same protocol used for DMSO-dissolved samples, keeping the final solvent concentration at 1% (v/v) of the total water volume.
Negative controls contained either DMSO (200 µL) alone or blank nanomicelles (NBr) at a volume matching the highest concentration tested, whereas the positive control comprised temephos at 1 µg mL^−1. After 14 days of preparation of the formulation, an activity confirmation test was performed at fixed concentrations of PNFTANE (70 ppm) and PNFTENE (5 ppm) formulations. The assays were performed in quadruplicate.

[1] = target: acetylcholinesterase from A. aegypti larvae homogenate (Aedes aegypti, UniProt Q6A2E2); assay: AChE inhibition (Ellman), A. aegypti L3 larvae homogenate; type: biochemical; conditions: for inhibition at 1500 µg/mL: at 1.5 mg∙mL^−1 (1500 µg mL^−1), read-out: Inhibition Rate (%) ± SD
Method: (§1) A total of 250 third instar larvae (370.1 mg) and 250 adults (163.8 mg) of A. aegypti, together with 150 adults of D. melanogaster (134.6 mg), were collected. Each group was placed in a separate 50 mL Falcon tube and frozen at −20 °C to arrest metabolic activity. After freezing, 5 mL of ultrapure water were added to each tube, and the contents were mechanically homogenized on ice using an IKA Ultra-Turrax® homogenizer (model T10BS32) at speed setting 4 for 5 min. The resulting homogenates were transferred to centrifuge tubes and spun at 10,000 rpm for 5 min at 4 °C in a refrigerated centrifuge. Supernatants were carefully collected, aliquoted and stored at −20 °C for biochemical analyses performed within 24 h. After preparation, the homogenates contained 50 insects/mL (larvae) and 30 insects/mL (adult Aedes aegypti and Drosophila melanogaster). These preparations were subsequently used for acetylcholinesterase inhibition activity, total-protein quantification by the BCA method, and calculation of specific catalytic units per individual.
(§2) Percentage inhibition of AChE was determined by the standard Ellman colorimetric method, with minor adaptations. […] After a 10 min incubation at 30 °C, 20 µL of DTNB (3.0 mM) and 20 µL of acetylthiocholine iodide (10.0 mM) were added. Plates were then incubated for a further 30 min at 30 °C, and end-point absorbance was read at 405 nm and pathlength 0.62 cm on a SpectraMax® 190 microplate reader (Molecular Devices^TM, SoftMax® Pro 5; serial no. SMP500-11007-TIQG).

macrophages = system: macrophages; parameters: method as in doi:10.1590/S0103-50532009000600011; conditions: cited from earlier work
[2] = parameters: method as in PMID 20406629; conditions: Wistar rats, 5–10 mg/kg; cited from earlier work
Leishmania amazonensis = system: Leishmania amazonensis; parameters: method as in doi:10.1590/S0103-50532009000600011; conditions: cited from earlier work
[3] = target: T1, acetylcholinesterase from D. melanogaster adults homogenate (Drosophila melanogaster, UniProt P07140); assay: AChE inhibition (Ellman), D. melanogaster adult homogenate; type: biochemical; conditions: for inhibition at 1500 µg/mL: at 1.5 mg∙mL^−1 (1500 µg mL^−1), read-out: Inhibition Rate (%) ± SD
T1 construct: from tissue; host or cells: whole-body homogenate supernatant of adult D. melanogaster (laboratory colony)
Method: as §1, §2

Trypanosoma evansi = system: Trypanosoma evansi; parameters: method as in PMID 27988226; conditions: at 0.5–2.0%; cited from earlier work
[4] = target: T2, Acetylcholinesterase (AChE) from Electrophorus electricus (Electrophorus electricus, UniProt O42275); assay: AChE inhibition (Ellman), commercial enzyme; type: biochemical; conditions: for IC50: commercial enzyme 0.15 U mL^−1
T2 construct: purchased C3389-2KU
Method: as §2

[5] = target: acetylcholinesterase from A. aegypti adults homogenate (Aedes aegypti, UniProt Q6A2E2); assay: AChE inhibition (Ellman), A. aegypti adult homogenate; type: biochemical; conditions: for inhibition at 1500 µg/mL: at 1.5 mg∙mL^−1 (1500 µg mL^−1), read-out: Inhibition Rate (%) ± SD
Method: as §1, §2

Aedes aegypti females = assay: Adulticidal bottle bioassay (WHO/CDC) against Aedes aegypti females; type: in vivo; conditions: preliminary tests
Method: A. aegypti colony was maintained at 26 ± 1 °C, 80 ± 5% relative humidity, and a 12 h light–dark cycle. […] Glass bottles (295 mL) were coated with 1 mL of essential oil solution in analytical-grade acetone. Bottles were left open for 10 min to allow complete solvent evaporation, then acclimated for 1 h with the cap removed. Each bottle received 15–25 unfed adult female A. aegypti and was exposed to 200–50 ppm of the test compound. Deltamethrin (K-Othrine®) at 10 ppm served as the positive control, and acetone-treated bottles as the negative control. Assays were conducted in quadruplicate, with mortality recorded at 15 min intervals over 90 min of continuous exposure. After 90 min, mosquitoes were gently transferred to 500 mL cylindrical paper containers covered with nylon mesh and kept under colony conditions (26 °C, 80% RH, 12 h photoperiod) for knockdown assessment 24 h post-exposure.

Artemia salina nauplii = assay: Toxicity test on Artemia salina nauplii (non-target); type: in vivo; conditions: 24 h, metanauplii
Method: Toxicity assays with Artemia salina followed the procedure of Meyer and collaborators with adaptations like those of [86, 107]. For cyst hatching, 25 mg of eggs were placed in a cuboid-glass vessel containing 600 mL of artificial seawater (38 g L^−1 in distilled water) and incubated at 28–30 °C under continuous illumination from a 40 W incandescent lamp. After 24 h, the nauplii (first larval stage) were transferred to fresh saline and reared for an additional 24 h under the same conditions to obtain metanauplii (second larval stage), which were used in the bioassays. Ten metanauplii were exposed to 10 mL of saline containing the test samples dissolved in DMSO. […] After dosing, organisms were maintained at 28–30 °C under artificial light for 24 h. Mortality defined as immobility or sinking to the bottom was recorded, and LC50 values were calculated for each sample. All experiments were performed in triplicate with independent replicates under identical conditions to ensure reproducibility.

Artemia salina = conditions: cited from earlier work
A. aegypti = conditions: cited from earlier work

O=[N+]([O-])CCc1ccccc1 [NFTANE, 1-Nitro-2-phenylethane]
LC50 ± SEM (LCL-UCL) (Aedes aegypti larvae; 24 h exposure): 84.8 ppm and 85.8 ppm
LC50 ± SEM (LCL-UCL) (Aedes aegypti larvae; 48 h exposure): 83.6 ppm
LC50 (Aedes aegypti larvae; exposure time not given): 84–87 ppm
inhibition at 1500 µg/mL [1]: ≤ 10%
fold less cytotoxic to macrophages than pentamidine (macrophages): approximately 2.5 fold
effect on blood pressure [2]: significantly lowering blood pressure
IC50 (Leishmania amazonensis): 40 µg/mL (≈ 265 µM)
inhibition at 1500 µg/mL [3]: ≤ 10%
activity against Trypanosoma evansi (Trypanosoma evansi): shows activity
Slope ± SEM [4]: 1.175 ± 0.066
IC50 [4]: 1250 µM
inhibition at 1500 µg/mL [5]: ≤ 10%
adulticidal effects compared with EOANIB (Aedes aegypti females): comparable adulticidal effects to EOANIB

O=[N+]([O-])C=Cc1ccccc1 [NFTENE, 1-Nitro-2-phenylethene]
LC50 ± SEM (LCL-UCL) (Aedes aegypti larvae; 24 h exposure): 10.9 ppm
LC50 ± SEM (LCL-UCL) (Aedes aegypti larvae; 48 h exposure): 7.7 ppm
LC50 ± SEM (CI) (Artemia salina nauplii): 1.9 ppm
Slope ± SEM [1]: 0.72 ± 0.06
inhibition at 25 µg/mL ([1]; 25 μg.mL^−1): 15.5%
inhibition at 50 µg/mL ([1]; 50 μg.mL^−1): 14.9%
inhibition at 100 µg/mL ([1]; 100 μg.mL^−1): 23.1%
inhibition at 250 µg/mL ([1]; 250 μg.mL^−1): 26.8%
inhibition at 500 µg/mL ([1]; 500 μg.mL^−1): 38%
inhibition at 1000 µg/mL ([1]; 1000 μg.mL^−1): 57.1%
inhibition at 1500 µg/mL [1]: 71.8 ± 2.21%
IC50 [3]: 21000 µM
Slope ± SEM [3]: 2.02 ± 0.20
inhibition at 500 µg/mL ([3]; 500 μg.mL^−1): 2.4%
inhibition at 1000 µg/mL ([3]; 1000 μg.mL^−1): 9.1%
inhibition at 1500 µg/mL [3]: 18.4 ± 2.11%
Slope ± SEM [4]: 1.283 ± 0.094
IC50 [4]: 998 µM
Slope ± SEM [5]: 0.86 ± 0.07
inhibition at 100 µg/mL ([5]; 100 μg.mL^−1): 4.5%
inhibition at 250 µg/mL ([5]; 250 μg.mL^−1): 11.2%
inhibition at 500 µg/mL ([5]; 500 μg.mL^−1): 15.1%
inhibition at 1000 µg/mL ([5]; 1000 μg.mL^−1): 26.6%
inhibition at 1500 µg/mL [5]: 34 ± 2.18%
adult mortality (Aedes aegypti females; 100 ppm): no adult mortality

COP(=S)(OC)Oc1ccc(Sc2ccc(OP(=S)(OC)OC)cc2)cc1 [Temephos, reference compound]
mortality at 1 ppm (Aedes aegypti larvae; Aedes aegypti, read-out: larval mortality): 100%

CCOP(=S)(OCC)Oc1nc(Cl)c(Cl)cc1Cl [chlorpyrifos]
LC50 (Artemia salina): 0.38 ppm

N=C(N)c1ccc(OCCCCCOc2ccc(C(=N)N)cc2)cc1 [pentamidine, reference compound]
IC50 (Leishmania amazonensis): 4.8 µg/mL (≈ 14.1 µM)

CCCSP(=O)(OCC)Oc1ccc(Br)cc1Cl (centres unmarked) [profenofos]
LC50 (Artemia salina): 7.71 ppm

CC1=CCC2CC1C2(C)C (stereo not drawn) [α-pinene]
LC50 (adulticidal activity of minor constituents) (A. aegypti): 17.3–56.5 ppm

C=C1CC/C=C(\C)CC[C@@H]2[C@@H]1CC2(C)C [β-caryophyllene]
LC50 (adulticidal activity of minor constituents) (A. aegypti): 26 ppm
